# Experiment: physchem
# Details: n-octanol/water
row,Structure (SMILES),logP
1,CC[C@@H](C(=O)[C@@H](C)[C@@H](O)[C@H](C)[C@@H]1O[C@@H]([C@@H](CC)C(=O)OCC[Si](C)(C)C)CC[C@@H]1C)[C@H]1O[C@]2(C=C[C@H](n3cc(COC(C(F)(F)F)(C(F)(F)F)C(F)(F)F)nn3)[C@]3(CC[C@@](C)([C@H]4CC[C@](O)(CC)[C@H](C)O4)O3)O2)[C@H](C)C[C@@H]1C,1.95
2,CC[C@@H](C(=O)[C@@H](C)[C@@H](O)[C@H](C)[C@@H]1O[C@@H]([C@@H](CC)C(=O)O)CC[C@@H]1C)[C@H]1O[C@]2(C=C[C@H](NC(=O)OCc3ccccc3)[C@]3(CC[C@@](C)([C@H]4CC[C@](O)(CC)[C@H](C)O4)O3)O2)[C@H](C)C[C@@H]1C,1.77
3,CC[C@@H](C(=O)[C@@H](C)[C@@H](O)[C@H](C)[C@@H]1O[C@@H]([C@@H](CC)C(=O)O)CC[C@@H]1C)[C@H]1O[C@]2(C=C[C@@H](O)[C@]3(CC[C@@](C)([C@H]4CC[C@](O)(CC)[C@H](C)O4)O3)O2)[C@H](C)C[C@@H]1C [SALINOMYCIN],2.21

# From ChEMBL document CHEMBL4196028, “Synthesis and biological evaluation of 20-epi-amino-20-deoxysalinomycin derivatives” (Eur J Med Chem, 2018)
